Data on 1 compound can be found in patent US6770290B1, “Amphotericin B liposome preparation” (priority 1987, dated 2004).

The assay relates to Candida albicans. Kind of assay: Therapeutic efficacy in C. albicans infected mice. The note with it: single dose 3 days post infection; for 29 SURVIVORS (%) / surviving mice at day 29 post infection: n = 8 per group. In kind it is in vivo. On the procedure:
360.1 mg of the spray dried powder were hydrated at 65 degrees Centigrade for 40 minutes with 9% lactose containing 10 mM succinate buffer, pH 5.62. Liposomes were prepared by sonication for four minutes with a ½ probe at 65° C. under a nitrogen atmosphere. Three successive batches of liposomes were prepared in a similar fashion. After sterile filtration, the Amphotericin B concentration was determined to be 1.73 mg/ml.
For therapeutic efficacy studies, groups of 8 mice were given intravenous inoculations of 3.5×10^5 Candida albicans yeast cells. Three days post-infection, animals were treated with a single dose of either free Amphotericin B or liposomal Amphotericin B. A severe systemic infection existed in animals which were not treated until three days post infection. Each successive group was treated with an increasing dose of medicament in order to establish a dose response relationship. Twenty-nine days after infection the study was evaluated for surviving animals. All untreated control animals had died by 8 days post-infection, with a median survival of 7 days. […] In contrast, all animals treated with 10 or 15 mg/kg of liposomal Amphotericin B were still alive […] post infection.

Consider `C[C@@H]1[C@H](O)[C@@H](C)/C=C/C=C/C=C/C=C/C=C/C=C/C=C/[C@H](O[C@@H]2O[C@H](C)[C@@H](O)[C@H](N)[C@@H]2O)C[C@@H]2O[C@](O)(C[C@@H](O)C[C@@H](O)[C@H](O)CC[C@@H](O)C[C@@H](O)CC(=O)O[C@H]1C)C[C@H](O)[C@H]2C(=O)O` [FREE AM B, Amphotericin B], for which the “29 SURVIVORS (%)” value runs as follows: (AMB dose 0.5 mg/kg) “(0%)”; (AMB dose 1.0 mg/kg) “(0%)”; (AMB dose 1.5 mg/kg) “(0%)”. Also, the “surviving mice at day 29 post infection” value (AMB dose 0.5 mg/kg) worked out at 0, the “surviving mice at day 29 post infection” value (AMB dose 1.0 mg/kg) came out at 0 and the “surviving mice at day 29 post infection” value (AMB dose 1.5 mg/kg) was 0. The “survivors at 29 days post infection” value (any dose level) is on record as “no dose level of free Amphotericin B which produced any survivors”.
